These results are taken from patent publication US5550128A, “Enantiomers of gamma methylene 10-deaza aminopterin and process for preparing the same” (priority 1994, dated 1996).

For series [1] the following is noted: animals; relative to MTX; cited from earlier work.
Series [2] relates to L1210 leukemia. To be noted: animals bearing L1210 leukemia; cited from earlier work.
The subject of series [3] is P388 leukemia. To be noted: animals bearing P388 leukemia; cited from earlier work.
Series [4] has as its system Human HCT-8 Ileocecal Xenograft. Kind of series: Antitumor activity by continuous i.v. infusion (C.I.) × 5d against human HCT-8 ileocecal xenograft. The class given is in vivo, human (xenograft in nude mice). The conditions noted are these: C.I. × 5d. From the text: Antitumor Activity of MDAM by C.I. × 5d
against HUMAN HCT-8 Ileocecal Xenograft
MIR: Maximum inhibitory rate.
TD: Tumor doubling time.
CR: Complete Regression.
PR: Partial Regression.
(§1) MWL: Maximum Weight Loss.

The test system is the same in series [5]. Nature of the series: Antitumor activity by I.V. push, daily × 5, against human HCT-8 ileocecal xenograft. The conditions noted are these: for CR: Complete Regression / MIR: Maximum inhibitory rate / PR: Partial Regression / TD: Tumor doubling time: i.v. push daily × 5.
Description: [M. G. Nair and Ann Abraham, U.S. Pat. No. 4,996,207 (1991); M. G. Nair, U.S. Pat. No. 5,073,554 (1991 )]. […] [Ann Abraham, M. G. Nair, et al. Advanced in Exp. Med. and Biol. 663-666 (1993)].
MIR: Maximum inhibitory rate. TD: Tumor doubling time.
CR: Complete Regression. PR Partial Regression.
as §1

Series [6] concerns H35 hepatoma cells. Nature of the series: Growth inhibition of H35 hepatoma cells in culture. The conditions noted are these: H35 hepatoma cells in culture, identical conditions; read-out: l50 value for growth inhibition (Gl50). In kind it is cell-based. As for the experimental part: (§2) Independent, further evidences to the identity of L-MDAM as the biologically active enantiomer of the racemic mixture of D,L-MDAM (previously described as MDAM; Ref, U.S. Pat. No. 4,996,207) was obtained by the following data. […] The cytotoxicity of L-MDAM versus D,L-MDAM was also compared. […] The l50 value for growth inhibition (Gl50) was 39 nM for D,L-MDAM. […] Taken together, these unexpected and novel results establish that the biologically active compound present in the racemic mixture of MDAM is the L-enantiomer described in claim number 1.

For series [7], the target named is T1, Recombinant Human Dihydrofolate Reductase (Homo sapiens, UniProt P00374).
T1 sequence (P00374 1-187): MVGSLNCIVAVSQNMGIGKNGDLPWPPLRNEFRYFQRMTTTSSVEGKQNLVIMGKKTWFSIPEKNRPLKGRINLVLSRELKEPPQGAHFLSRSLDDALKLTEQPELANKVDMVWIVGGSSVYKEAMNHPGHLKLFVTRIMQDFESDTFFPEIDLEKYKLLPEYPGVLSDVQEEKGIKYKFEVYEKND
Kind of series: Inhibition of recombinant human dihydrofolate reductase, spectrophotometric enzyme assay. The class given is biochemical. As for the experimental part:
Enzyme assay was performed spectrophotometrically in a solution containin
50 μM dihydrofolate, 80 μM NADPH, 0.05 M Tris HCl. 0.01 M
2mercaptoethanol and 0.001 M EDTA at pH 7.4 at 30°. The reaction
Pure human recombinant enzyme was used.

Series [8] deals with human tumor cell lines in culture. Nature of the series: Human Tumor Disease Oriented in vitro screen, panel as a whole. In kind it is cell-based. The conditions noted are these: relative to methotrexate, or enantiomer comparison. How it is done:
Further, by analogy to methotrexate (rheumatrex) L-MDAM should be useful in the treatment of autoimmune diseases such as rheumatoid arthritis and inflammatory diseases such as asthma.
A 48 h continuous drug exposure protocol was used combined with an SR13
protein assay to estimate cell growth or viability.

Series [9] relates to transport of radiolabeled folinic acid to H35 hepatoma cells. Nature of the series: Inhibition of transport of radiolabeled folinic acid to H35 hepatoma cells. The class given is cell-based. To be noted: H35 hepatoma cells; read-out: l50 value, inhibition of transport of radiolabeled folinic acid. How it is done: as §2
[10] abbreviates: single iv push daily for 5 days at the maximum tolerated dose, nude mice.

Regarding `C=C(CC(NC(=O)c1ccc(C(CC)Cc2cnc3nc(N)nc(N)c3n2)cc1)C(=O)O)C(=O)O` (centres unmarked) [MEDAM, γ-methylene-10-ethyl-10-deazaaminopterin], in [1], the tolerability result is “tolerated by animals at higher doses”. The “in vivo antitumor activity relative to MTX” value in series [2] and in [3] was “superior in vivo antitumor activity relative to the polyglutamylatable MTX” throughout.
`C=C(CC(NC(=O)c1ccc(CCc2cnc3nc(N)nc(N)c3n2)cc1)C(=O)O)C(=O)O` (racemic) [D,L-MDAM, γ-methylene-10-deazaaminopterin]: the “CR: Complete Regression” value in series [4] (0.5 mg/kg) was determined as 0%; in series [4] (1 mg/kg) it was 0%; in [4] (2 mg/kg(/day)), 38%; in series [5] (30 mg/kg), 0%; in series [5] (40 mg/kg) it was 25%; in [5] (50 mg/kg), 25%. Moreover, the “MIR: Maximum inhibitory rate” value is 49.8 ± 8.2% in [4] (0.5 mg/kg); 56.4 ± 7.8% in [4] (1 mg/kg); 81.7 ± 7.2% in series [4] (2 mg/kg); 58.8 ± 9.2% in series [5] (30 mg/kg); 79.2 ± 7.5% in [5] (40 mg/kg); 79.2 ± 6.2% in series [5] (50 mg/kg). For the same compound, the “PR: Partial Regression” value in series [4] (0.5 mg/kg) is 0%; in [4] (1 mg/kg), 0%; in [4] (2 mg/kg(/day)) it was 38%; in [5] (30 mg/kg) it was 0%; in series [5] (40 mg/kg), 25%; in series [5] (50 mg/kg), 50%. In addition, the “TD: Tumor doubling time” value in [4] (0.5 mg/kg) turned out to be 5.3 ± 0.9 days; in series [4] (1 mg/kg) it was 6.0 ± 0.7 days; in series [4] (2 mg/kg), 12.4 ± 5.8 days; in [5] (30 mg/kg), 6.2 ± 0.9 days; in [5] (40 mg/kg) it was 7.1 ± 0.5 days; in series [5] (50 mg/kg), 8.4 ± 0.4 days. This compound came in with an antitumor response in series [5] (setting [10]) of 75%. Moreover, in series [5] (setting [10]), the complete tumor regression is 25%. For the same compound, the tolerability entry in [1] is on record as “tolerated by animals at higher doses”. Besides, the “in vivo antitumor activity relative to MTX” value in series [2] and in series [3] was “superior in vivo antitumor activity relative to the polyglutamylatable MTX” throughout. The IC50 in [6] is 39 nM; in [7] (50 μM dihydrofolate, 80 μM NADPH, pH 7.4, 30°) it was 44 nM; in series [9], 5500 nM. For the same compound, in series [7] (ratio to MTX), the “IC50 Compound/IC50 MTX” value is 2.58. Further, the “activity/potency in inhibiting growth of human tumor cell lines (in words)” value in series [8] is given as “more potent activity relative to methotrexate in several tumor cell lines”; in series [8] (listed as MDAM), “equivalent or greater potency than methotrexate”.
